The source of these data is PMC8655235 (Journal of Advanced Research, 2020).

The assay deals with T1, mitochondrial complex I (NADH dehydrogenase) of mites (Psoroptes ovis, UniProt A0A075XDS2).
T1 sequence (A0A075XDS2 1-300): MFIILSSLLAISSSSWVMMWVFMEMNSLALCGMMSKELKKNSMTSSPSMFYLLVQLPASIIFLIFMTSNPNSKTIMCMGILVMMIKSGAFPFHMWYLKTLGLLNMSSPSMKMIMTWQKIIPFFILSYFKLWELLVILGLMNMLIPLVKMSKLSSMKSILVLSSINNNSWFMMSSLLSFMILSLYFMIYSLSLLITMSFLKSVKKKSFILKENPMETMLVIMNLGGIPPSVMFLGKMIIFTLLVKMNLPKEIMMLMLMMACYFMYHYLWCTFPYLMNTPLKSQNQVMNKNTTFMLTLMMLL
The experiment in a line: colorimetric complex I assay at […] nm, isolated mite mitochondria. It is filed as biochemical. The settings on record: read-out: % inhibition at 20 ng/mL.

Turning to `C=CCc1ccc(O)c(OC)c1` [eugenol, 4-allyl-2-methoxyphenol], the inhibition at 0.02 µg/mL came to 92.6%.
